Among the data in US8415376B2, “Inhibitors of PI3 kinase” (Amgen Inc., priority 2008, dated 2013) are Ki and IC50 values, retold here.

SMILES strings stand for the structures.

For experiment [1], the target named is T1, PI3Kα (Homo sapiens, UniProt P42336).
T1 construct: Full length p110 subunits of PI3K α, β and δ, N-terminally labeled with polyHis tag; polyHis (N); made in house; host or cells: Sf9 insect cells (baculovirus)
As to the kind of experiment: In vitro PI3K AlphaScreen assay. It counts as biochemical. To be noted: average if run more than once.
Description: In Vitro PI3K Alphascreen® Assay
The PI3K AlphaScreen® assay (PerkinElmer, Waltham, Mass.) measures the activity of a panel of four phosphoinositide 3-kinases: PI3Kα, PI3Kβ, PI3Kγ, and PI3Kδ. Each of these enzymes phosphorylates the 3′-hydroxyl group on phosphatidylinositiol (4,5)-bisphosphate (PIP2) to produce phosphatidylinositol (3,4,5)-trisphosphate (PIP3). This phosphorylation activity is measured using a GST-tagged PIP3 binding protein (Echelon Biosciences, Salt Lake City, Utah), an anti-GST-tagged Acceptor bead, and streptavidin-Donor bead. […] In the absence of this interaction, proximity of the Donor and Acceptor beads is decreased, producing a loss of luminescent signal which is inversely proportional to PI3K activity.
The enzyme reaction buffer is made using sterile water (Baxter, Deerfield, Ill.) and 50 mM Tris HCl pH 7, 14 mM MgCl2, 2 mM sodium cholate, and 100 mM NaCl. 2 mM DTT is added fresh the day of the experiment. The AlphaScreen® reaction buffer is made using sterile water and 10 mM Tris HCl pH 7.5, 150 mM NaCl, 0.10% Tween 20, and 30 mM EDTA. 1 mM DTT is added fresh the day of the experiment.
The source plates for this assay are 384-well Greiner clear polypropylene plates containing test compounds at 5mM and diluted 1:2 over 22 points. […] Source plates are replicated into 384-well Optiplates (PerkinElmer, Waltham, Mass.), 0.5 μL/well, to make assay-ready plates.
The different PI3K isoforms are each diluted in enzyme reaction buffer to 2× working solutions. […] Two different 2× substrate solutions are made in enzyme reaction buffer. In one solution, PI(4,5)P2 (Echelon Biosciences, Salt Lake City, Utah) is diluted to 10 μM and ATP is diluted to 20 μM. This solution is used in the assays testing PI3Kα and PI3Kβ. In a second solution, PI(4,5)P2 is diluted to 10 μM and ATP is diluted to 8 μM. This solution used in the assays testing PI3Kγ and PI3Kδ.
The AlphaScreen® reaction solutions are made using beads from the anti-GST AlphaScreen® kit (PerkinElmer, Waltham, Mass.). Two solutions are made in Alphascreen reaction buffer to 4× working concentrations. In one solution, biotinylated-IP4 (Echelon Biosciences, Salt Lake City, Utah) is diluted to 40 nM and streptavadin-Donor Beads are diluted to 80 μg/mL. In the second solution, PIP3-binding protein (Echelon Biosciences, Salt Lake City, Utah) is diluted to 40 nM and anti-GST-Acceptor Beads are diluted to 80 μg/mL. 10 μL/well of enzyme reaction buffer is added to Column 24 of the assay ready plates in place of enzyme. This is done for plates in the PI3Kα, β, and 67 assays.
Using a 384-well dispensing Multidrop (Titertek, Huntsville, Ala.), 10 μL/well of 2× enzyme (PI3Kα, β, δ) is added to Columns 1-23 of the appropriate assay ready plates (for PI3Kγ 10 μL is added to Columns 1-24). 10 μL/well of the appropriate substrate solution (the solution with 20 μM ATP for PI3Kα and β assays, and the solution with 8 μM ATP for PI3Kγ and δ assays) is then added to Columns 1-24 of the plates. Plates are then incubated at room temperature for 20 minutes.
In the dark, 10 μL/well of the Donor Bead solution is added to Columns 1-24 of the plates to quench the enzyme reaction. The plates are incubated at room temperature for 30 minutes. Still in the dark, 10 μL/well of the Acceptor Bead solution is also added to Columns 1-24 of the plates. The plates are then incubated in the dark for 1.5 hours. The plates are read on an Envision Multilabel Plate Reader (PerkinElmer, Waltham, Mass.) with a 680 nm excitation filter and a 520-620 nm emission filter.

Experiment [2] concerns the target T2, mTOR (Homo sapiens, UniProt P42345).
T2 construct: purchased Invitrogen (Carlsbad, Calif.)
As to the kind of experiment: In vitro mTOR assay (Lanthascreen). It counts as biochemical. The conditions noted are these: average if run more than once. An excerpt:
The Invitrogen (Carlsbad, Calif.) mammalian target of rapamycin (mTOR) Lanthascreen assay can be used to quantitate mTOR kinase activity in an in vitro setting. Active mTOR phosphorylates eukaryotic translation initiation factor 4E binding protein 1 (4E-BP1) on residue threonine 46. This phosphorylation event can be detected with a phospho-specific terbium (Tb) labeled Ab, in turn bringing the Tb label in close proximity to the GFP tagged 4E-BP1 and allowing for time-resolved fluorescence resonance energy transfer (TR-FRET), which correlates 4E-BP1 phosphorylation levels with mTOR kinase activity.
Enzyme reaction buffer can be prepared in deionized water containing 50 mM HEPES (pH 7.5), 0.01% Polysorbate 20, 1 mM EGTA, and 10 mM MnCl2.
Dilutions of the compound to be tested can be prepared in 96-well polypropylene plates (Fisher Scientific, Waltham, Mass.). One row represents a 10-point dose of compound diluted 1:3 in enzyme reaction buffer and 20% dimethyl sulfoxide (DMSO). The top concentration for all compounds is 36 μM. Wells 6 and 12 can serve as the no compound (DMSO only) and high compound controls.
An mTOR substrate solution can prepared in enzyme reaction buffer containing 1600 nM green fluorescent protein tagged eukaryotic translation initiation factor 4E binding protein 1 (GFP-4E-BP1) (Invitrogen, Carlsbad, Calif.) and 28 uM adenosine triphosphate (ATP) (Calbiochem, Gibbstown, N.J.).
mTOR enzyme (Invitrogen, Carlsbad, Calif.) can be diluted in enzyme reaction buffer to a working concentration of 100 ng/mL.
The enzyme assay can be run in 384 well low volume assay plates (Corning, Corning, N.Y.). 2.5 uL of substrate solution containing GFP-4E-BP1 and ATP can be added to appropriate wells in the assay plate followed by 2.5 μL of compound dilutions. 5 μL of appropriately diluted mTOR enzyme can be added and the reaction allowed to proceed for 1 hour at room temperature. Final reagent concentrations in the enzyme assay are 50 ng/mL mTOR, 400 nM GFP-4E-BP1, and 7 μM ATP.
The enzyme assay can be terminated upon the addition of 10 μL of 20 mM EDTA and 4 nM Tb-labeled anti-phospho-4E-BP1 [T46] antibody (Invitrogen, Carlsbad, Calif.). The assay plate can then be incubated at room temperature for 1 hour and results read on a Tecan Safire II plate reader (Tecan, Männedorf, Switzerland).

The subject of experiment [3] is phosphorylation of Akt at Serine 473. Put plainly: pAkt AlphaScreen (U87 cell). It counts as cell-based. To be noted: Homo sapiens, U-87 MG; U87 MG cells, pAkt Ser473; average. On the procedure: pAkt Alphascreen (U87 Cell)
The pAkt AlphaScreen® assay (PerkinElmer, Waltham, Mass.) determines whether there is phosphorylation of Akt at Serine 473 by recruitment of a phosphospecific antibody. This assay was performed using U87 MG cells. The U87 growth media consists of MEM (Gibco, Carlsbad, Calif.) supplemented with 10% FBS (Gibco,), 1× Non-Essential Amino Acids (Gibco,) and 1× Penicillin/Streptomycin/Glutamine (Gibco). The cells were maintained weekly using 0.05% Trypsin (Gibco) and replated in 150 mm TC-Treated Culture Dishes (Corning, Corning, N.Y.).
The first day of the assay, the adherent cells were trypsinized, media was added to the loose cells and cells were mixed to a homogenous mixture. 0.5 ml of the homogenous mixture was counted on the Beckman Coulter® Vi-CELL™ XR (Fullerton, Calif.). 50 frames of cells were counted and the number of viable cells was determined. The cells were then diluted to 0.25 million cells per ml, and centrifuged at 200 rcf for 5 minutes. The media was removed and the cells were reconstituted in fresh media for plating. The cells were plated at 20 μl per well on the PerkinElmer® FlexDrop PLUS in Low Volume 384 Well White Tissue Culture Plates (Corning) with a final cell density of 5K cells per well. The plates were incubated overnight at 37° Celsius, 5% CO2.
On the second day, the compound plates were prepared, the cells were treated with compound and the pAkt reaction mix was added to the cell lysate. 384 well compound plates were prepared containing 1 μl of compound per well starting at 5 mM and diluted 1:2 across the row, resulting in a 22 well serial dilution. 39 μl of growth media was added to the compound plate in rows 1-22 using the PerkinElmer® FlexDrop PLUS resulting in a DMSO concentration of 2.5%. The cell plates and diluted compound plates were put onto the VELOCITY11™ VPREP™ 384 ST where the compound plate was mixed and 5 μl of serially diluted compound or controls was added to the cell plate. The final concentration of the compounds was 25 μM serially diluted to 11.9 pM in 0.5% DMSO. The cell plates were then incubated with compound for two hours at 37° Celsius, 5% CO2. After two hours, the media in the cell plates was aspirated using the BioTek® ELx405HT plate washer (Winooski, Vt.) removing the majority of media and compound without disturbing the adherent U87 cells. The following assay reagents are components of the SureFire® Akt (Ser 473) Phosphorylation 50K Point Kit (TGR BioSciences, Adelaide, Austalia) and an IgG Detection Kit (PerkinElmer, Waltham, Mass.). 5 μl of 1× Lysis Buffer was added to each well using the PerkinElmer® FlexDrop PLUS. The plates were then incubated at room temperature on a shaker for ten minutes. The AlphaScreen® reaction was prepared under low light conditions (subdued or green light) including p-Akt (Ser 473) Reaction Buffer, Dilution Buffer, Activation Buffer, Acceptor Beads and Donor Beads at a ratio of 40:20:10:1:1 respectively. The AlphaScreen® reaction was added to the cell lysate at 6 μl per well using the PerkinElmer® FlexDrop PLUS. The plates were placed in a humid environment to reduce edge effects and incubated overnight at room temperature with restricted air flow in the dark.
On the final day of the experiment, the plates were read on the PerkinElmer® EnVision™ 2103 Multilable Reader using the standard AlphaScreen® readout. The POC is calculated and the data is analyzed to report the IC50 IP for pAkt at Serine 473.
Activity data for the compounds tested in the PI3K cell based Akt assay is provided in Table 2 under the column heading U87

T2 sequence (P42345 1360-2549 limits assumed): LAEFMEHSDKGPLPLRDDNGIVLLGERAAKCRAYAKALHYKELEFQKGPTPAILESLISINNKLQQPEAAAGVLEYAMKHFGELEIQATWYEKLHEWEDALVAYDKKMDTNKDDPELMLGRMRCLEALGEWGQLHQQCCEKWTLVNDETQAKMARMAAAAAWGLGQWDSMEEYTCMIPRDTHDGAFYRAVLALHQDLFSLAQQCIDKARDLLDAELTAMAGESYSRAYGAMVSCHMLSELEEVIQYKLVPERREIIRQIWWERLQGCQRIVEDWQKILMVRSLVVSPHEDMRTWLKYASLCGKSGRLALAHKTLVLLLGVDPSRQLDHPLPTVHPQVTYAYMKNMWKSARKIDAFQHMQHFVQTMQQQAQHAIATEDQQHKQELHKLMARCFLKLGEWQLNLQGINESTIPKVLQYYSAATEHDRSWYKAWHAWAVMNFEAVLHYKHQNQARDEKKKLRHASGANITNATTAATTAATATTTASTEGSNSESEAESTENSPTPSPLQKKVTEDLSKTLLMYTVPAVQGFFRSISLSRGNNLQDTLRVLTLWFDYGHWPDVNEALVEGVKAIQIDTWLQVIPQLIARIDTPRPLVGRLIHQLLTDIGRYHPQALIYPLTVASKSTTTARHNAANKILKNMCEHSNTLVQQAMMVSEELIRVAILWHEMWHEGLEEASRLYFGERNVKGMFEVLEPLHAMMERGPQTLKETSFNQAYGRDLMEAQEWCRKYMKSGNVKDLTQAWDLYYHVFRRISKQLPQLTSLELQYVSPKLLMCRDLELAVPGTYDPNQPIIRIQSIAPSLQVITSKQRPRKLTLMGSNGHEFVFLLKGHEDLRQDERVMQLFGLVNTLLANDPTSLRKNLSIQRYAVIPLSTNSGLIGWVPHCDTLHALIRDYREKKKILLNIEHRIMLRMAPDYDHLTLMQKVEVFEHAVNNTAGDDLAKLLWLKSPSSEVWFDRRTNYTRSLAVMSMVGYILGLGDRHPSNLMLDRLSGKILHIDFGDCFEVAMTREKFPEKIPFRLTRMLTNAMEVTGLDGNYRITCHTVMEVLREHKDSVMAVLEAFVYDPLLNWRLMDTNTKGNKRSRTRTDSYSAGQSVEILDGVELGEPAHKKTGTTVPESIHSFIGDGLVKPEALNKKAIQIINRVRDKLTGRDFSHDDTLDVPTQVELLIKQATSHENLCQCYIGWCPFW
T1 sequence (P42336 whole entry): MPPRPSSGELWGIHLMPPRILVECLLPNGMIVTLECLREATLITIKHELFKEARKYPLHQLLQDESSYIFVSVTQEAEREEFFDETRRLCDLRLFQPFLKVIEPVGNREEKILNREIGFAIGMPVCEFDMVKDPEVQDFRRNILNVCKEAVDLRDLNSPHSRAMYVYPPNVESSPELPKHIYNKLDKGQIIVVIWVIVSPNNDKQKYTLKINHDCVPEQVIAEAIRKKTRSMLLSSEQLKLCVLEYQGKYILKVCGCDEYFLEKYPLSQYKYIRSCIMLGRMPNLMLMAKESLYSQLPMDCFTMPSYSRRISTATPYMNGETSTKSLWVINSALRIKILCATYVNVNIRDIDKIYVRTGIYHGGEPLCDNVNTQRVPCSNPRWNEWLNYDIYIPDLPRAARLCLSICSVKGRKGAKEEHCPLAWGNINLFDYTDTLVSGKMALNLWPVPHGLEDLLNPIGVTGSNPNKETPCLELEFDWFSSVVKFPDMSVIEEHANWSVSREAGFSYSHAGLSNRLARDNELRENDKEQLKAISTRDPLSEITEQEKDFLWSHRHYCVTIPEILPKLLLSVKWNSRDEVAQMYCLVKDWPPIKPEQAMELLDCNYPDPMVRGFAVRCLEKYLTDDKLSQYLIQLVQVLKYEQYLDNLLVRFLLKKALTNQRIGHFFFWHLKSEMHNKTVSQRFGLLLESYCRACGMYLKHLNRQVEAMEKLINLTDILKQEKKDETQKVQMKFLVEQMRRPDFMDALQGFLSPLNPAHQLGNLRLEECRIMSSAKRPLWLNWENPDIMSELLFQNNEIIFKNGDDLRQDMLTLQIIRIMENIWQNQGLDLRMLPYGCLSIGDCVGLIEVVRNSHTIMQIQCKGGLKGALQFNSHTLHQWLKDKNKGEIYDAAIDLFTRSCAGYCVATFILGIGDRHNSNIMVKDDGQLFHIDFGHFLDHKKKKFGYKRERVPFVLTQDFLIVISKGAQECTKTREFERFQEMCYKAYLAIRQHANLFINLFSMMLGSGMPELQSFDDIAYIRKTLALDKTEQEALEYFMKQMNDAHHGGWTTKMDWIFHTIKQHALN
T1 sequence (P27986 whole entry partner): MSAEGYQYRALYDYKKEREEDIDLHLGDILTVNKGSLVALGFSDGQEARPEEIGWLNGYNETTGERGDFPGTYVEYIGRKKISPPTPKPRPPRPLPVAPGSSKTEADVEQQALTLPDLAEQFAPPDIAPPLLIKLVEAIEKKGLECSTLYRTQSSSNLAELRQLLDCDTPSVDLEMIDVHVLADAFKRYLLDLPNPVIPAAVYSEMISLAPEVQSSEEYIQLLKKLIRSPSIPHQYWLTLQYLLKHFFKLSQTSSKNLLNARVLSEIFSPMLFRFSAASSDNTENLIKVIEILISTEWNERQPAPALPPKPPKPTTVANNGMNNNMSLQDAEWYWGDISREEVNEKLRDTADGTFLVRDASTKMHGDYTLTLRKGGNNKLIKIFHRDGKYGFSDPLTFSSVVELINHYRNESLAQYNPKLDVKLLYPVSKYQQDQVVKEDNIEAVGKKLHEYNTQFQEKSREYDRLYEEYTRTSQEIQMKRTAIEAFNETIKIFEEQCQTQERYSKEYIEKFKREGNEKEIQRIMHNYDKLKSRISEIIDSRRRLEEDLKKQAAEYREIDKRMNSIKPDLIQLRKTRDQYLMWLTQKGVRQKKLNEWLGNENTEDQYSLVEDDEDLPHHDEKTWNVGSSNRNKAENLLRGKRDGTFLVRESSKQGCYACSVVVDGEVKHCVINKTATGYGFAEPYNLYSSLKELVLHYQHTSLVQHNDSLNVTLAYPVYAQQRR

The compound `CS(=O)(=O)Nc1cc(-c2ccc3nccc(-c4cccnc4)c3c2)cnc1Cl` [Example 116, N-(2-Chloro-5-(4-(pyridin-3-yl)quinolin-6-yl)pyridin-3-yl)methanesulfonamide] gave a Ki in experiment [1] of 0.0013 µM. Moreover, the values for the IC50 in experiment [2] and in experiment [3] were 0.0029 µM and 0.019 µM, respectively.
`CCN(Cc1noc(C2CC2)n1)c1ccnc2ccc(-c3cnc(Cl)c(NS(C)(=O)=O)c3)cc12` [Example 77, N-(2-chloro-5-(4-(((5-cyclopropyl-1,2,4-oxadiazol-3-yl)methyl)(ethyl)amino)-6-quinolinyl)-3-pyridinyl)methanesulfonamide] yielded a Ki in experiment [1] of 0.0184 µM. Moreover, the figures for the IC50 in experiment [2] and in experiment [3] were 0.0677 µM and 1.93 µM, respectively.
`COCCN(C)S(=O)(=O)Nc1cc(-c2ccc3ncc(=O)n(-c4ccccc4)c3c2)cnc1Cl` [Example 131, N-(2-chloro-5-(3-oxo-4-phenyl-3,4-dihydroquinoxalin-6-yl)pyridin-3-yl) 2-methoxy-N-methylethanaminosulfonamide] came in with a Ki in experiment [1] of 0.0032 µM. The IC50 was 0.0076 µM in experiment [2] and 0.0092 µM in experiment [3].
Consider `CS(=O)(=O)Nc1cc(-c2ccc3nccc(-c4ccnc(C(F)(F)F)c4)c3c2)cnc1Cl` [Example 111, N-(2-chloro-5-(4-(2-(trifluoromethyl)-4-pyridinyl)-6-quinolinyl)-3-pyridinyl)methanesulfonamide], for which the Ki in experiment [1] is 0.003 µM. The IC50 in experiment [2] is 0.0028 µM; in experiment [3] it was 0.0261 µM.
In the case of `CC1(C)CN(c2ccnc3ccc(-c4cnc(Cl)c(NS(C)(=O)=O)c4)cc23)CCO1` [Example 90, N-(2-chloro-5-(4-(2,2-dimethyl-4-morpholinyl)-6-quinolinyl)-3-pyridinyl)methanesulfonamide], the affinity in experiment [1], expressed as Ki, was 0.0107 µM. The IC50 in experiment [2] came to 0.0044 µM; in experiment [3], 0.0484 µM.
For `CS(=O)(=O)Nc1cc(-c2ccc3nccc(N4Cc5ccc(F)cc5C4)c3c2)cnc1Cl` [Example 86, N-(2-chloro-5-(4-(5-fluoro-1,3-dihydro-2H-isoindol-2-yl)-6-quinolinyl)-3-pyridinyl)methanesulfonamide] the same measures were 0.016 µM, 0.162 µM and 0.667 µM.
In experiment [1], `CS(=O)(=O)Nc1cc(-c2ccc3nccc(C4=CCOCC4)c3c2)cnc1Cl` [Example 107, N-(2-chloro-5-(4-(3,6-dihydro-2H-pyran-4-yl)-6-quinolinyl)-3-pyridinyl)methanesulfonamide] yielded a Ki of 0.0017 µM. The IC50 in experiment [2] amounted to 0.004 µM; in experiment [3], 0.0198 µM.
For `O=S(=O)(Nc1cc(-c2ccc3nccc(N4CCOCC4)c3c2)cnc1Cl)N1CCOCC1` [Example 124, N-(2-chloro-5-(4-morpholinoquinolin-6-yl)pyridin-3-yl)morpholine-4-sulfonamide] the same measures were 0.0046 µM, 0.0143 µM and 0.0399 µM.
For the compound `C[C@@H]1CN(c2ccnc3ccc(-c4cnc(Cl)c(NS(C)(=O)=O)c4)cc23)C[C@@H](C)O1` (racemic) [Example 104, N-(2-chloro-5-(4-(2,6-dimethyl-4-morpholinyl)-6-quinolinyl)-3-pyridinyl)methanesulfonamide], the Ki in experiment [1] came to 0.0083 µM. Also, the IC50 was found to be 0.0058 µM in experiment [2] and 0.0284 µM in experiment [3].
`COCC1CCCN1c1ccnc2ccc(-c3cnc(Cl)c(NS(C)(=O)=O)c3)cc12` (stereo not drawn) [Example 81, N-(2-chloro-5-(4-(2-(methoxymethyl)-1-pyrrolidinyl)-6-quinolinyl)-3-pyridinyl)methanesulfonamide] yielded a Ki in experiment [1] of 0.368 µM. Also, the figures for the IC50 in experiment [2] and in experiment [3] were 2.74 µM and 2.71 µM, respectively.
In experiment [1], `O=S(=O)(Nc1cc(-c2ccc3nccc(-c4ccnc(Cl)c4)c3c2)cnc1Cl)c1ccc(F)cc1` [Example 94, N-(2-chloro-5-(4-(2-chloro-4-pyridinyl)-6-quinolinyl)-3-pyridinyl)-4-fluorobenzenesulfonamide] gave a Ki of 0.0013 µM. The IC50 turned out to be 0.0006 µM in experiment [2] and 0.0053 µM in experiment [3].
As to `O=S1(=O)CCC(COc2ccnc3ccc(-c4cnc(Cl)c(NS(=O)(=O)c5ccc(F)cc5)c4)cc23)CC1` [Example 113, N-(2-Chloro-5-(4-((tetrahydro-2H-thiopyran-1,1-dioxide-4-yl)methoxy)quinolin-6-yl)pyridin-3-3-yl)-4-fluorobenzenesulfonamide], in experiment [1], the Ki amounted to 0.0016 µM. Besides, the IC50 came to 0.0146 µM in experiment [2] and 0.0444 µM in experiment [3].
For `COc1ccc(-n2c(=O)cnc3ccc(-c4cnc(Cl)c(NS(=O)(=O)N(C)C)c4)cc32)cn1` [Example 132, N-(2-chloro-5-(4-(6-methoxypyridin-3-yl)-3-oxo-3,4-dihydroquinoxalin-6-yl)pyridin-3-yl)dimethylaminosulfonamide] the same measures were 0.0022 µM, 0.0023 µM and 0.0408 µM.
The compound `O=S(=O)(Nc1cc(-c2ccc3nccc(N4CCOCC4)c3c2)cnc1Cl)c1cccnc1` [Example 101, N-(2-chloro-5-(4-(4-morpholinyl)-6-quinolinyl)-3-pyridinyl)-3-pyridinesulfonamide] had a Ki in experiment [1] of 0.0027 µM. Also, the IC50 in experiment [2] came out at 0.0036 µM; in experiment [3], 0.0762 µM.
Turning to `CN(C)S(=O)(=O)Nc1cc(-c2ccc3ncc(=O)n(-c4ccccc4)c3c2)cnc1Cl` [Example 130, N-(2-chloro-5-(3-oxo-4-phenyl-3,4-dihydroquinoxalin-6-yl)pyridin-3-yl)dimethylaminosulfonamide], in experiment [1], the affinity corresponds to a Ki of 0.0025 µM. Also, the IC50 in experiment [2] was 0.0012 µM; in experiment [3] it was 0.0087 µM.
In experiment [1], `COc1ncc(-c2ccc3nccc(-c4ccncc4)c3c2)cc1NS(C)(=O)=O` [Example 120, N-(2-Methoxy-5-(4-(pyridin-4-yl)quinolin-6-yl)pyridin-3-yl)methanesulfonamide] came in with a Ki of 0.0035 µM. Also, the IC50 in experiment [2] was 0.0048 µM; in experiment [3] it was 0.0147 µM.
